This is an account of results in patent publication US20240350578A1, “FUNCTIONAL OUTCOMES AFTER SPINAL CORD INJURY” (priority 2023, published 2024).

For one series, the system named is mixed neuronal culture. The series can be described thus: Neuronal LDH release from a mixed neuronal culture following incubation with NMDA. In kind it is cell-based. The settings on record: peptide at 1 μM; mixed neuronal culture incubated with NMDA. An excerpt: (§1) Despite the neuroprotective effectiveness of early generation apoE-mimetic peptides based on the primary structure of the apoE receptor-binding region, several factors have limited clinical translation. Among those factors are peptide size and production cost. In order to address these barriers, we developed a library of smaller, 5-amino acid peptides by linearizing the polar face of the receptor-binding region, which preserves peptide function without maintaining any primary sequence homology with the apoE receptor-binding region itself. Overall, 13 peptides were screened using in vitro assays of neuroinflammation and neuroprotection from excitotoxicity. […] The resulting smaller, 5-amino acid peptide increases the translational and therapeutic potential by reducing production cost, improving pharmacokinetics, and increasing CNS bioavailability. A comparison of the neuroprotective activity of CN-105 with VR-53, another pentapeptide from this library, as measured by LPS-induced inflammation from TNFα is shown in FIG. 1.

For another series, the system named is acquired brain injury. The settings on record: in vivo; cited from earlier work.
A short description of series [1]: Pharmacokinetic evaluation of radiolabeled CN-105 in uninjured male CD-1 mice. In kind it is in vivo. The settings on record: single intravenous bolus 1.98 mg/kg. Here is the method: FIG. 2, panel A is a graph showing the concentration of CN-105 in uninjured, male CD-1 mice after a single intravenous injection bolus dose of 1.98 mg/kg. FIG. 2, panel B is a graph showing the CN-105 retention in the brain and the spinal cord, calculated by dividing the concentration at 24 hours (C24) by the peak concentration (Cmax), 24 hours after a single intravenous injection bolus dose of 1.98 mg/kg. FIG. 2, panel C is a graph showing the total CN-105 exposure in the brain and the spinal cord, calculated using the area under the curve (AUC), for 48 hours after a single intravenous injection bolus dose of 1.98 mg/kg.
In collaboration with XenoBiotic Laboratories, Inc., we conducted a pharmacokinetic evaluation of radiolabled CN-105 in uninjured, male CD-1 mice. After a single intravenous bolus dose of CN-105 (1.98 mg/kg), peak concentration of CN-105 in the spinal cord occurred 30 minutes post injection (FIG. 2, panel A).
However, tissue retention of CN-105 at 24 hours (FIG. 2, panel B) and total exposure (FIG. 2, panel C) to CN-105 over 48 hours post injection was greatest in the spinal cord. Tissue retention at 24 hours post injection was quantified by dividing the CN-105 concentration at 24 hours (C24) by the peak CN-105 concentration (Cmax) and multiplying by 100.
The total exposure to CN-105 was calculated using the area under the curve (AUC) from the time of injection to 48 hours post injection (AUC0-48) and is expressed in nanogram equivalents*hour per gram. […] Increased CN-105 access to the spinal cord is consistent with greater passive permeability in the intact spinal cord (Winkler et al., 2012).

The next series has as its system mixed glial culture. The series can be described thus: LPS-induced TNFα release from mixed glia cells in vitro. It is filed as cell-based.
Text: FIG. 1 is a graph showing the LPS-induced TNFα release from mixed glia cells in vitro from treatments with the CN-105 peptide and a comparison pentapeptide, VR-53.
as §1

For a further series, the system named is severe, contusive SCI. The series can be described thus: Severe, contusive SCI: GFAP staining at injury epicenter. It is filed as in vivo, mouse. The following applies: 0.05 mg/kg before and after SCI; 14 days after severe SCI. Here is the method: FIG. 4 is a series of microscopy images showing the spinal cord sections at the injury epicenter stained for glial fibrillary acidic protein (GFAP) in a mouse after a severe SCI.
In a separate experiment, we delivered CN-105 (0.05 mg/kg) before and after SCI. To determine the effect of CN-105 treatment on neuropathology 14 days after severe SCI, we stained spinal cord sections at the injury epicenter for glial fibrillary acidic protein (GFAP; FIG. 4), which labels astrocytes, including those that form the glial scar around the injury. In this approach, spared tissue can be differentiated from the lesion core by the presence (spared tissue) or absence (lesion core) of GFAP staining (Duncan et al., 2018).

The target of series [2] is α7 nicotinic acetylcholine receptors (Homo sapiens, UniProt P36544). The following applies: cited from earlier work.
The test system of series [3] is spinal cord transection in female Sprague-Dawley rats. The series can be described thus: Spinal cord transection T9/T10: acute cystometry and body weight. It is filed as in vivo. Here is the method:
FIG. 5, panel A is a graph showing the number of non-voiding bladder contractions during acute cystometry in urethane-anesthetized, female Sprague-Dawley rats that received spinal cord transection between the 9th and 10th thoracic vertebrae, followed by CN-105 (2 mg/kg; sci_cn105) or 0.9% saline (sci_saline) treatments at 30 minutes and 3 hours post injury by IV injection, and then every 24 hours by IP for 7 days.
FIG. 5, panel B is a graph showing the bladder capacity measured from a single-fill cystometric trial in urethane-anesthetized, female Sprague-Dawley rats that received spinal cord transection between the 9th and 10th thoracic vertebrae. Three baseline measurements were taken, and then three measurements were taken after administration of CN-105 (2 mg/kg; cn105).
We conducted terminal acute experiments in urethane-anesthetized, female Sprague-Dawley rats to quantify the chronic and acute effects of CN-105 on urodynamic function. Rats (n=6) received spinal cord transection (TX) at T9/T10 followed by CN-105 (2.0 mg/kg) or 0.9% saline treatment at 30 min and 3 hours (IV), then every 24 hours (IP) for 7 days post-injury. Collection of body weight and void volumes occurred 2-3 times daily during manual bladder expression throughout the duration of the study. For acute cystometry experiments, we placed a catheter into the bladder dome to measure pressure and an electromyography paddle on the EUS to measure muscle activity. During a single-fill cystometric trial, we infused the bladder with saline at a constant rate (54-84 ml/hr) until a distension-evoked bladder contraction voided urine or until overflow incontinence occurred. Following 3 baseline cystometric trials, we performed 3 trials after administration of CN-105.

The subject of series [4] is moderate, contusive SCI in adult, female C57BL/6J mice. The series can be described thus: Moderate, contusive SCI at T9: Basso Mouse Scale and von Frey hair test. It is filed as in vivo. Here is the method:
FIG. 3 are graphs showing the locomotor performance recovery (via Basso Mouse Scale) in adult, female C57BL/6J mice after a moderate, incomplete SCI at the 9th thoracic vertebrae. The mice were subsequently treated with either 2.0 mg/kg CN-105 or a control vehicle intravenously 30 minutes post-injury, and then intraperitoneally (IP) at 3 hours, 6 hours, and then every 24 hours post-injury for three days. FIG. 3, panel A is a graph showing the number of consistent, weight-supported hindlimb steps at 21-days post-injury; and FIG. 3, panel B is a graph showing the number of animals capable of performing coordinated locomotion at 21-days post-injury.
To determine whether CN-105 can improve sensorimotor outcomes following a moderate, incomplete SCI, we conducted experiments in adult, female C57BL/6J mice. Here, we delivered CN-105 (2.0 mg/kg) or Vehicle at 30 minutes (intravenous, IV), at 3 hours and 6 hours (intraperitoneal, IP), then every 24 hours (IP) for three days following a moderate, contusive SCI at the level of the 9th thoracic vertebrae (T9). We tracked locomotor recovery using the Basso Mouse Scale (BMS) (Basso et al., 2006) and assessed for neuropathic pain or allodynia using the von Frey hair test.

Setting [5] is: SCI rats, 2.0 mg/kg chronic treatment, cystometry.

α7 nicotinic acetylcholine receptors, sequence (P36544 23-502): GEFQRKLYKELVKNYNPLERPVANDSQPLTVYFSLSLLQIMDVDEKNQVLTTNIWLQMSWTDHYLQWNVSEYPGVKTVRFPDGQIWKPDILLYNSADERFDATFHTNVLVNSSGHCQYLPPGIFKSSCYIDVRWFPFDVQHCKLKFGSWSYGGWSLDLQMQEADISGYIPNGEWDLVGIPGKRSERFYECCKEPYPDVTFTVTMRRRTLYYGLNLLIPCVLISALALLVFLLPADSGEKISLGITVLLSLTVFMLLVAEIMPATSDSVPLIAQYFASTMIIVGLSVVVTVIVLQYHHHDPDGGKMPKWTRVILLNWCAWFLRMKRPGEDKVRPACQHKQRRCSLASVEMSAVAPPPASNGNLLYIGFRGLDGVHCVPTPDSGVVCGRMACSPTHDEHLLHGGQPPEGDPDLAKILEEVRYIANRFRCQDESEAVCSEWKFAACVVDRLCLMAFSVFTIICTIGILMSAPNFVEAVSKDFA

With Ac-VSKKR-NH2 [VR-54], in the series with mixed neuronal culture, the “Neuroprotection (reduction in neuronal LDH release)” value is given as −15.91%.

With Ac-VSRRR-NH2 [CN-105], in the series on acquired brain injury, the “Brain exposure relative to previous peptides” value was “up to five times higher than previous peptides”; the “Histological and behavioral outcomes following acquired brain injury” value is “improves both histological and behavioral outcomes”. Besides, the “Total exposure (AUC0-48), spinal cord vs brain” value in series [1] (0-48 hours) is listed as “spinal cord had greater total exposure to CN-105 than the brain”. In addition, in series [1] (24 hours post injection), the “Tissue retention at 24 hours (C24/Cmax x 100), spinal cord vs brain” value was “spinal cord retained a higher percentage of CN-105 than the brain”. Besides, the “Time of peak concentration in the spinal cord” value in series [1] (spinal cord) turned out to be 30 min. The “Suppression of LPS-induced inflammation (TNFα)” value with mixed glial culture is reported as “suppress LPS-induced inflammation”. Also, the “Lesion size and tissue damage (GFAP staining)” value in the series on severe, contusive SCI is “appeared to reduce the lesion size and tissue damage”. Moreover, the “Neuroprotection (reduction in neuronal LDH release)” value in the series with mixed neuronal culture came out at 19.14%. Besides, the “Binding to α7 nicotinic acetylcholine receptors” value in series [2] is given as “binds”. Further, the Post-injury weight loss entry in series [3] (2.0 mg/kg IV 30 min and 3 h, then IP every 24 h for 7 days) is on record as “prevented post-injury weight loss”. In series [3] (setting [5]), the “Bladder capacity (BC)” value was 11.83 ± 2.00 mL, the “Non-voiding contractions (NVCs)” value is 8.0±2.48 and the “Voiding efficiency (VE)” value came to 3.31±1.83%. Moreover, the “Bladder capacity after acute dosing” value in series [3] (acute dosing 2 mg/kg in chronically treated rats, p<0.05) was “may decrease bladder capacities”. Besides, in series [3] (extended treatment, p<0.05), the “Neurogenic detrusor overactivity (NDO), post-hoc analysis” value is “may decrease NDO”. In addition, in series [4] (2.0 mg/kg), the “Sensory function / allodynia (von Frey hair test)” value was “trend toward improved sensory function”. Moreover, the “Animals capable of consistently taking weight-supported steps (BMS)” value in series [4] (2.0 mg/kg IV 30 min, IP 3 h, 6 h, then every 24 h for three days, 21 days after injury, p<0.05) is given as “significantly more animals”. The “Animals performing coordinated locomotion (BMS)” value in series [4] (2.0 mg/kg, 21 days after injury, p<0.05) is listed as “significantly more animals”.

Ac-RHKKL-NH2 [RL-S-1]: the “Neuroprotection (reduction in neuronal LDH release)” value in the series on mixed neuronal culture is given as −2.85%.

Regarding Ac-RARRL-NH2 [RL-S-2], in the series with mixed neuronal culture, the “Neuroprotection (reduction in neuronal LDH release)” value was −5.23%.

Consider Ac-VARRL-NH2 [VL-S-3], for which the “Neuroprotection (reduction in neuronal LDH release)” value with mixed neuronal culture is on record as 11.50%.

Consider Ac-VARKL-NH2 [VL-S-1], for which, in the series on mixed neuronal culture, the “Neuroprotection (reduction in neuronal LDH release)” value is recorded as 24.48%.

Ac-RSKKL-NH2 [RL-S-3]: the “Neuroprotection (reduction in neuronal LDH release)” value in the series with mixed neuronal culture was −20.80%.

For Ac-VSKRR-NH2 [VR-53], the “Neuroprotection (reduction in neuronal LDH release)” value in the series on mixed neuronal culture is 7.03%.

As for Ac-RSKRR-NH2 [RR-S-2], the “Neuroprotection (reduction in neuronal LDH release)” value in the series with mixed neuronal culture is listed as 0.08%.

With Ac-ASHLRKLRKRLL-NH2 [AL-10-1], the “Neuroprotection (reduction in neuronal LDH release)” value with mixed neuronal culture is reported as −6.21%.

In the case of Ac-RHKRR-NH2 [RR-S-1], in the series on mixed neuronal culture, the “Neuroprotection (reduction in neuronal LDH release)” value was 7.5%.

As for Ac-VSRKR-NH2 [VR-52], in the series with mixed neuronal culture, the “Neuroprotection (reduction in neuronal LDH release)” value was determined as 12.63%.
